# From patent EP1202959B1, “AMINOBENZOPHENONES AS INHIBITORS OF IL-1-BETA AND TNF-ALPHA” (LEO PHARMA A/S, priority 1999, dated 2001)
# Assays:
# Assay type in all cases: cell-based
# IL-1β = test: Inhibition of IL-1β secretion in LPS stimulated peripheral blood mononuclear cells (ELISA); settings: PBMC; LPS stimulated human peripheral blood mononuclear cells; compounds added 30 minutes before LPS; incubated 18 hours; read-out: The median inhibition concentration (IC50, nM) of IL-1β
# Method: (§1) To study the effect of the compound of the present invention in vitro the inhibition of the IL-1β and TNF-α secretion was measured using the following procedure:
# (§2) Cytokine production was measured in the media from lipopolysaccharide (LPS) stimulated peripheral blood mononuclear cells. The mononuclear cells were isolated from human peripheral blood by Lymphoprep® (Nycomed, Norway) fractionation and suspended in RPMI 1640 (growth medium) with foetal calv serum (FCS, 2%), at a concentration of 5 x 10^5 cells/ml. The cells were incubated in 24-well tissue culture plates in 1 ml aliquots. Test compounds were dissolved in dimethylsulfoxide (DMSO, 10 mM) and were diluted with the medium. Compounds were added to the cells for 30 minutes, then LPS ([…] final concentration) was added. The plates were incubated for 18 hours, and the concentration of IL-1β and TNF-α in the medium was determined by enzyme-linked immunosorbent assays. The median inhibitory concentrations (IC50) of the compounds were calculated.
# TNF-α = test: Inhibition of TNF-α secretion in LPS stimulated peripheral blood mononuclear cells (ELISA); settings: PBMC; LPS stimulated human peripheral blood mononuclear cells; compounds added 30 minutes before LPS; incubated 18 hours; read-out: The median inhibition concentration (IC50, nM) of TNF-α
# Method: as §1, §2
# [1] = tested on: Human polymorphonuclear (PMN) granulocytes; test: Inhibition of PMN superoxide secretion (superoxide dismutase inhibitable reduction of ferricytochrome C); settings: human PMN granulocytes primed with TNF-α (3 ng/ml), stimulated with fMLP (10^-7 M); read-out: The median inhibition concentration (IC50, nM) of PMN-superoxide
# Method: The compounds of the present invention also show similar activities in the ability to inhibit PMN (polymorphonuclear) superoxide secretion which is also indicative of potentially useful anti-inflammatory drugs. The compounds were tested using the following procedure: Human polymorphonuclear (PMN) granulocytes were isolated from human blood by dextran sedimentation, Lymphoprep® fractionation and hypotonic lysis of contaminating erythrocytes. Superoxide anion generation was measured as the superoxide dismutase inhibitable reduction of ferricytochrome C (Madhu, S.B. et al, Inflammation, 16, 241, (1992)). The cells were suspended in Hanks' balanced salt solution, and incubated for 10 minutes at 37°C with test compounds. The cells were primed by the addition of TNF-α (3 ng/ml final concentration) for 10 minutes, and then ferricytochrome C, (final concentration 750µg/ml), bovine serum albumin (BSA, final concentration 1 mg/ml) and formyl-methionyl-leucyl-phenylalanine (fMLP, final concentration 10^-7 M) were added for 3 minutes. The cells were chilled on ice, and were spun down. The optical densities in the cell-free supernatant was measured in a spectrophotometer. The median inhibitory concentration (IC50) of the compounds was calculated.
Structure (SMILES),IC50 (IL-1β),IC50 (TNF-α),IC50 [1]
"Cc1ccccc1C(=O)c1ccc(Nc2ccccc2NC(=O)Oc2ccccc2)cc1Cl [Compound 105, Phenyl N-[2-[3-chloro-4-(2-methylbenzoyl)-phenylamino]phenyl]carbamate]",50 nM,10 nM,100 nM
"CCOC(=O)Nc1ccccc1Nc1ccc(C(=O)c2ccccc2C)c(Cl)c1 [ref. b), Ethyl N-[2-[3-chloro-4-(2-methylbenzoyl)-phenylamino]phenyl]carbamate]",32 nM,5 nM,5 nM
"CC(=O)OCOC(=O)Nc1ccccc1Nc1ccc(C(=O)c2ccccc2C)c(Cl)c1 [Compound 109, 1-Acetoxymethyl N-[2-[3-chloro-4-(2-methylbenzoyl)-phenylamino]phenyl]carbamate]",32 nM,6.3 nM,40 nM
"Cc1ccccc1C(=O)c1ccc(Nc2ccccc2N)cc1Cl [ref. a), 4-(2-Aminophenylamino)-2-chloro-2'-methylbenzophenone]",13 nM,7.1 nM,5 nM
